Data: patent US6756380B1, “5-phenyl-pyrimidine derivatives” (Hoffmann-La Roche Inc., priority 1999, dated 2004)
Where a name gives a salt, the structure may show the parent alone.

test system: not given; assay: not given; conditions: not given

Row | Structure (SMILES) | melting point [°C]
1 | Cc1ccccc1-c1cnc(OCCN(C)C)nc1C(=O)N(C)Cc1cc(C(F)(F)F)cc(C(F)(F)F)c1 (as salt: hydrochloride) [Example 21, 2-(2-Dimethylamino-ethoxy)-5-o-tolyl-pyrimidine-4-carboxylic acid (3,5-bis-trifluoromethyl-benzyl)-methyl-amide] | 147 to 149

target: T1, human NK1 receptor (Homo sapiens, UniProt P25103); assay: NK1 receptor binding assay, displacement of [3H]substance P; conditions: [3H]substance P (0.6 nM) displacement; CHO cells infected with the human NK1 receptor (Semliki virus expression system); 60 min at room temperature; read-out: affinity to the NK-1 receptor, given as pKi (converted)
T1 construct: expressed in transfected cells; host or cells: CHO cells infected with Semliki virus expression system; membrane suspension
T1 sequence (P25103 whole entry): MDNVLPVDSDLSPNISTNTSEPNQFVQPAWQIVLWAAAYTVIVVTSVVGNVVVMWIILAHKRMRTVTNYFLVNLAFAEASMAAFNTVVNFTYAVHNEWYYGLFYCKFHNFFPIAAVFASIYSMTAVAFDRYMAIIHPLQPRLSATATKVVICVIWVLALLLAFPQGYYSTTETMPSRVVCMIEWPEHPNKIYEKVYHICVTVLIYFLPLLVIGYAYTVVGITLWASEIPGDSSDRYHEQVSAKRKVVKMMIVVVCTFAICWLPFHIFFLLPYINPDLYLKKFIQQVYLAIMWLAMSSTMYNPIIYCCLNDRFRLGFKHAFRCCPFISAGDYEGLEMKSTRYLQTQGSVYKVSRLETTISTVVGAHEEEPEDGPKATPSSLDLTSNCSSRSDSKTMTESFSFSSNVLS
Procedure: The affinity of test compounds for the NK, receptor was evaluated at human NK, receptors in CHO cells infected with the human NK1 receptor (using the Semliki virus expression system) and radiolabelled with [^3H]substance P (final concentration 0.6 nM). Binding assays were performed in HEPES buffer (50 mM, pH 7.4) containing BSA (0.04 %) leupeptin (8 μg/ml), MnCl2 (3mM) and phosphoramidon (2 μM). Binding assays consisted of 250 μl of membrane suspension (1.25×10^5 cells/assay tube), […] of buffer of displacing agent and 125 μl of [^3H]substance P. Displacement curves were determined with at least seven concentrations of the compound. The assay tubes were incubated for 60 min at room temperature after which time the tube contents were rapidly filtered under vacuum through GF/C filters presoaked for 60 min with PEI (0.3%) with 2×2 ml washed of HEPES buffer (50 mM, pH 7.4). The radioactivity retained on the filters was measured by scintillation counting. All assays were performed in triplicate in at least 2 separate experiments.

Row | Structure (SMILES) | Ki [nM]
2 | CN1CCN(c2ncc(-c3ccccc3Cl)c(C(=O)N(C)Cc3cc(C(F)(F)F)cc(C(F)(F)F)c3)n2)CC1 [Example 13, 5-(2-Chloro-phenyl)-2-(4-methyl-piperazin-1-yl)-pyrimidine-4-carboxylic acid (3,5-bis-trifluoromethyl-benzyl)-methyl-amide] | 6.17
3 | Cc1ccccc1-c1cnc(OCCN(C)C)nc1C(=O)N(C)Cc1cc(C(F)(F)F)cc(C(F)(F)F)c1 [Example 21, 2-(2-Dimethylamino-ethoxy)-5-o-tolyl-pyrimidine-4-carboxylic acid (3,5-bis-trifluoromethyl-benzyl)-methyl-amide] | 2.19
4 | CN1CCN(c2ncc(-c3cccc4ccccc34)c(C(=O)N(C)Cc3cc(C(F)(F)F)cc(C(F)(F)F)c3)n2)CC1 [Example 25, 2-(4-Methyl-piperazin-1-yl)-5-naphthalen-1-yl-pyrimidine-4-carboxylic acid (3,5-bis-trifluoromethyl-benzyl)-methyl-amide] | 3.72
5 | Cc1cc(F)ccc1-c1cnc(NCCN(C)C)nc1C(=O)N(C)Cc1cc(C(F)(F)F)cc(C(F)(F)F)c1 [Example 54, 2-(2-Dimethylamino-ethylamino)-5-(4-fluoro-2-methyl-phenyl)-pyrimidine-4-carboxylic acid (3,5-bis-trifluoromethyl-benzyl)-methyl-amide] | 1.45
6 | Cc1ccccc1-c1cnc(OCCN(C)C)nc1N(C)C(=O)C(C)(C)c1cc(C(F)(F)F)cc(C(F)(F)F)c1 [Example 79, 2-(3,5-Bis-trifluoromethyl-phenyl)-N-[2-(2-dimethylamino-ethoxy)-5-o-tolyl-pyrimidin-4-yl]-N-methyl-isobutyramide] | 0.661
